The text below walks through data of patent publication US20240287463A1, “INDUCIBLE TISSUE CONSTRUCTS AND USES THEREOF” (Massachusetts Institute of Technology, priority 2020, published 2024).

In data set [1] the test system is primary human hepatocytes. Description: hepatocyte phenotypic stability (albumin production) in MPCC after fibroblast deletion. To be noted: CID at day 1, day 3 or day 7 of 2D MPCC. It counts as cell-based. From the text: Specifically, MPCC were fabricated as described previously (S. R. Khetani and S. N. Bhatia (2005) Nat. Biotechnol 26, 120; S. March et al. (2015) Nat. Protoc. 10, 2007). Briefly, collagen was adsorbed in each well of a 96 well plate (glass bottom), and then patterned using an elastomeric polydimethysiloxane mold and oxygen plasma gas ablation. Human hepatocytes were thawed and seeded (70 k/well) on the collagen islands (500 μm with 1,200 μm center-to-center spacing). Adhered hepatocytes (˜10 k/well) were allowed to spread overnight before fibroblasts were seeded for co-culture (7 k/well). Supernatant was collected from cultures every other day and stored at −20° C. Human albumin was quantified using an enzyme-linked immunosorbent assay using a sheep anti-rat albumin antibody (ELISA) (Bethyl Laboratories) and 3,3′,5,5′-tetramethylbenzidine (TMB, Thermo Fisher). Urea concentration was measured using a colorimetric (diacetylmonoxime) assay with acid and heat (Stanbio Labs). CYP3A4 activity was assessed with the luminogenic P450-GloTM CYP450 assay kit (Promega) for nonlytic assays using cultured cells. […]
To query the dependence of hepatocytes on fibroblasts, fibroblasts were deleted from MPCCs by CID treatment at various time points and albumin production was assessed as a surrogate marker of phenotypic stability.

The test system of data set [2] is iCasp9-GFP fibroblasts. Description: viability of hydrogel-encapsulated monoculture fibroblasts. It counts as cell-based.
Data set [3] deals with iCasp9-GFP J2s. Put plainly: fibroblast deletion from 3D spheroid-laden hydrogels. It counts as cell-based. An excerpt: Previous work identified that phenotypic stability and longevity of primary hepatocytes cultured as 3D microtissues were transiently supported by pre-aggregation to increase homotypic cell-cell interactions, and were further enhanced upon inclusion of J2 fibroblasts (C. Y. Li et al. (2014) Tissue Eng. Part A 20, 2200). Thus, iCasp9-GFP J2 fibroblasts were incorporated into these 3D hepatic ensembles, which were fabricated by plating primary human hepatocytes and fibroblasts in microwells in order to facilitate physical cell-cell contacts, as previously described (K. Stevens et al. (2013) Nat. Commun. 4, 1847; K. R. Stevens et al. (2017) Sci. Transl. Med. 9, eaaah5505). […] Hepatic spheroids (about 150 hepatocytes per spheroid, ˜100 μm diameter) were imaged and analyzed to quantify the extent of spheroid compaction. […] Resulting morphologies were traced and measured for circularity. […]
To probe the dependence of hepatocyte phenotypic stability on fibroblast co-culture in 3D, fibroblasts were deleted from spheroid-laden hydrogel cultures using CAMEO after 1 day of hepatocyte-fibroblast co-culture. Fibroblasts were robustly removed from 3D co-cultures as described in the above Examples, and detected by immunofluorescence imaging (FIG. 3I). […]

Data set [4] concerns iCasp9-HDFs. Description: apoptosis of 2D monolayer fibroblasts (cellular ATP, cell density). It counts as cell-based, human. How it is done:
To be able to remove fibroblasts on demand from the developing co-culture, the synthetically engineered, inducibly activated caspase-9 (iCasp9) outlined in the examples above was used. Using this inducible transgene, iCasp9-HDFs were established and characterized for effectiveness. iCasp9-HDFs were seeded on tissue culture plastic, and allowed to form a confluent monolayer before adding different concentrations of CID.

On to `CC[C@H](C(=O)N1CCCC[C@H]1C(=O)O[C@H](CCc1ccc(OC)c(OC)c1)c1cccc(OCC(=O)NCC(CNC(=O)COc2cccc([C@@H](CCc3ccc(OC)c(OC)c3)OC(=O)[C@@H]3CCCCN3C(=O)[C@@H](CC)c3cc(OC)c(OC)c(OC)c3)c2)CN(C)C)c1)c1cc(OC)c(OC)c(OC)c1` [CID, AP20187], for which the “hepatocyte phenotypic stability (albumin production)” value in data set [1] was “loss of hepatocyte phenotypic stability”. In addition, in data set [2] (hydrogel-encapsulated, after 6 hours of CID), the fibroblast viability entry is “undetectable”. Further, the fibroblast regrowth result in data set [2] (over the course of 21 days after CID) is “did not regrow”. Further, in data set [3] (50 nM CID at day 1, imaged starting at day 2), the iCasp9-GFP staining result was “negligible”. Further, the “deletion of iCasp9-GFP J2s throughout the hydrogel” value in data set [3] (spheroid-laden hydrogel cultures, data not shown) is “robust and specific deletion”. For the same compound, the “time within which cellular ATP levels dropped precipitously” value in data set [4] (5 nM CID) lay within 2 to 4 h. Moreover, in data set [4] (10 nM CID, overnight), the “reduction of iCasp9-HDFs in culture compared to vehicle control” value is given as around 96%. In addition, in data set [4] (5, 50, 500 nM CID), the “rapidity of ATP loss” value is recorded as “increased with increasing CID concentration”.
